Patent US5902815A, “Use of 5HT-2A serotonin agonists to prevent adverse effects of NMDA receptor hypofunction” (priority 1996, dated 1999)

Experiments:
5HT-2A receptors = settings: Burris et al 1991 or other literature; cited from earlier work
5HT2C receptors = settings: Burris et al 1991 or other literature; cited from earlier work
[1] = tested on: vacuolated pyramidal neurons of posterior cingulate and retrosplenial (PC/RS) cortices, MK-801 neurotoxicity; assay: Blocking MK-801 neurotoxicity (vacuolated PC/RS cortical neurons) in rats by serotonergic agents; format: in vivo, adult female rats; settings: for ED50: Rattus norvegicus, Pyramidal neuron, ip, read-out: ED50 in blocking MK-801 neurotoxicity, rats
Procedure: Each test rat also received a 5HT-2A/2C agonist drug (LSD, DOB, DOI, or DOM), while control rats received an inert carrier liquid as a placebo. After 4 hours, the rats were sacrificed, and brain tissue from specific regions which are susceptible to NR/hypo damage (layers III and IV of the posterior cingulate (PC) and retrosplenial (RS) cortices) were examined for vacuoles in the neurons, which are an indicator of toxic neuronal injury induced by NMDA receptor hypofunction.
DOI was purchased from Research Biochemicals International (Natick, Mass.).
For each test agent, at least 20 rats were used, and at least four dosages were tested.
The rats were sacrificed four hours after drug administration, and brain tissue from the PC/RS region was histopathologically evaluated by previously described methods using double-blinded techniques (Olney et al 1991). The number of vacuolated PC and RS neurons were counted on each side of the brain at a rostrocaudal level immediately posterior to where the corpus callosum ceases decussating across the midline (approximately 5.6 mm caudal to Bregma; Paxinos & Watson, The Rat Brain in Stereotaxic Coordinates, 2d Ed., 1986).
This drug is widely used in Europe, and is a 5HT-2A agonist but a 5HT-2C antagonist.
It is described in Nozulak et al 1993.

[2] = tested on: NR/hypo-induced vacuoles in PC/RS cortical neurons (MK-801); assay: Anti-psychotic drugs and sigma blockers: protection against NR/hypo-induced vacuoles; format: in vivo, rats; settings: for ED50: Rattus norvegicus, Cortical neurone, read-out: ED50 in protecting against NR/hypo-induced vacuoles; for ED50 / activity in protecting against NR/hypo-induced vacuoles (words): ip; for effect on vacuole formation / activity in protecting against NR/hypo-induced vacuoles (words): rats, MK-801; for activity in protecting against NR/hypo-induced vacuoles (words): sulpiride given only 15 minutes prior to MK-801
Procedure: Several of the antipsychotic agents tested (haloperidol, thioridazine and loxapine) are known to interact with both dopamine receptors and sigma receptors.
Control animals received saline or DMSO, but no anti-psychotic drugs. Test animals were injected ip with an antipsychotic drug, listed above and in Table 2. Vacuoles were counted and data were processed as described in Example 1.

schizophrenia = settings: schizophrenic patients; cited from earlier work
[3] = 4 h, MK-801 0.5 mg/kg sc, test compound ip, dose reducing mean vacuolated neurons to 50% of control, 4 h

In the case of `CCN(CC)C(=O)[C@@H]1C=C2c3cccc4[nH]cc(c34)C[C@H]2N(C)C1` [LSD, lysergic acid diethylamide], the “activity at 5HT-2A receptors” value (5HT-2A receptors) is given as “agonizes 5HT-2A and 5HT-2C receptors”, the “activity at 5HT-2C receptors” value (5HT2C receptors) is given as “agonizes 5HT-2A and 5HT-2C receptors” and the ED50 [1, 3] is given as 0.68 mg/kg. The “ED50 in blocking MK-801 neurotoxicity” value ([1]; rats, MK-801 0.5 mg/kg sc, test compound ip, dose reducing mean vacuolated neurons to 50% of control, 4 h, 240 min) was 0.67 mg/kg.
For `CN1CCN(C2=Nc3cc(F)ccc3Cc3ccccc32)CC1` [Fluperlapine], the ED50 [2] was 2.3 mg/kg and the “effect on vacuole formation” value [2] was “shown to reduce vacuole formation”.
In the case of `COc1cc(CC(C)N)c(OC)cc1Br` (stereo not drawn) [DOB, 1-(2,5-dimethoxy-4-bromophenyl)-2-aminopropane], the “activity at 5HT-2A receptors” value (5HT-2A receptors) is listed as “selectively activate 5HT-2A and 5HT-2C receptors with higher affinity than other 5HT receptors”, the “activity at 5HT-2C receptors” value (5HT2C receptors) is listed as “selectively activate 5HT-2A and 5HT-2C receptors with higher affinity than other 5HT receptors” and the ED50 [1, 3] is listed as 0.36 mg/kg.
`CN1CCN(C2=Nc3ccccc3Oc3ccc(Cl)cc32)CC1` [Loxapine] gave an ED50 [2] of 23.6 mg/kg.
`Clc1ccc2c(c1)C(N1CCNCC1)=Nc1ccccc1O2` [Amoxapine] showed an ED50 [2] of 75 mg/kg.
For `CN1CC[C@@H]2CN3CCc4cccc(c43)[C@@H]2C1.O=C(O)/C=C/C(=O)O` [SDZ SER-082], the “activity at 5HT-2C receptors” value (5HT2C receptors) is given as “selective 5HT-2C antagonist” and the “effect on MK-801 neurotoxicity” value ([1]; selective 5HT-2C antagonist, n=22) is given as “did not affect MK-801 neurotoxicity, either positively or negatively”.
Work on `Cc1ccccc1N=C(N)Nc1ccccc1C` [Di(2-tolyl)guanidine, di(2-tolyl)guanidine] yielded an ED50 [2] of 22.2 mg/kg.
For `CSc1ccc2c(c1)N(CCC1CCCCN1C)c1ccccc1S2` (stereo not drawn) [Thioridazine], the ED50 [2] was 55.3 mg/kg.
In the case of `COc1cc(CC(C)N)c(OC)cc1C` (stereo not drawn) [DOM, 1-(2,5-dimethoxy-4-methylphenyl)-2-aminopropane], the “activity at 5HT-2A receptors” value (5HT-2A receptors) is listed as “selectively activate 5HT-2A and 5HT-2C receptors with higher affinity than other 5HT receptors”, the “activity at 5HT-2C receptors” value (5HT2C receptors) is listed as “selectively activate 5HT-2A and 5HT-2C receptors with higher affinity than other 5HT receptors” and the ED50 [1, 3] is listed as 0.81 mg/kg.
With `CCN1CCCC1CNC(=O)c1cc(S(N)(=O)=O)ccc1OC` (stereo not drawn) [Sulpiride] the ED50 [2] was greater than 200 mg/kg, the “activity in protecting against NR/hypo-induced vacuoles (words)” value [2] was “Inactive” and the “activity in protecting against NR/hypo-induced vacuoles (words)” value ([2]; listed as sulpiride) was “inactive”.
Molecule `C[C@@H]1CN(CCCn2c3ccccc3c3ccccc32)C[C@H](C)N1` [Rimcazole] has an ED50 [2] of 17.8 mg/kg.
For `CCNC(C)Cc1cccc(C(F)(F)F)c1` (stereo not drawn) [fenfluramine], the “effect on symptoms of schizophrenia” value (schizophrenia) is listed as “can exacerbate the symptoms and displays of schizophrenia”.
For `COc1cc(CC(C)N)c(OC)cc1I` (stereo not drawn) [DOI, 1-(2,5-dimethoxy-4-iodophenyl)-2-aminopropane], the “activity at 5HT-2A receptors” value (5HT-2A receptors) is listed as “selectively activate 5HT-2A and 5HT-2C receptors with higher affinity than other 5HT receptors”, the “activity at 5HT-2C receptors” value (5HT2C receptors) is listed as “selectively activate 5HT-2A and 5HT-2C receptors with higher affinity than other 5HT receptors” and the “protection against NMDA antagonist toxicity with SDZ SER-082 added” value ([1]; DOI n=29, SDZ SER-082 added to block 5HT-2C receptor) is listed as “found to protect against NMDA antagonist toxicity”. It also gave an ED50 [1, 3] of 1.05 mg/kg.
For `N[C@@H](Cc1c[nH]c2ccccc12)C(=O)O` [tryptophan], the “effect on symptoms of schizophrenia” value (schizophrenia) is listed as “can exacerbate the symptoms and displays of schizophrenia”.
With `Cc1cc2c(s1)Nc1ccccc1N=C2N1CCN(C)CC1` [Olanzapine] the ED50 [2] was 1.4 mg/kg and the “effect on vacuole formation” value [2] was “shown to reduce vacuole formation”.
In the case of `O=C(CCCN1CCC(O)(c2ccc(Cl)cc2)CC1)c1ccc(F)cc1` [Haloperidol], the ED50 [2] is reported as 5.1 mg/kg.
For `COc1cccc([C@H](O)C2CCN(CCc3ccc(F)cc3)CC2)c1OC` [MDL 100,907], the “activity at 5HT-2A receptors” value (5HT-2A receptors) is listed as “preferentially antagonizes 2A receptors” and the “activity at 5HT-2C receptors” value (5HT2C receptors) is listed as “does not substantially affect 2C receptors”.
